Experimental data from patent publication US9611314B2, “Functional peptide analogs of PEDF” (The Penn State Research Foundation, priority 2013, dated 2017).
Where no end group is shown, it is not given here.

Key:
[1] = Peptide bioavailability in mouse vitreous after 5 μg eye drop (MALDI TOF); format: in vivo, C57BL/6 mice; conditions: mouse, in vivo
Experimental: Before the longitudinal efficacy studies were carried out in vivo, the bioavailability of the five analogs was examined in comparison to the parent compound P78 and its active 29-mer derivative, SpxA1.
Bioavailability of each peptide was determined in vitreous samples obtained at various time points after eye drops were given. Vitreous samples were harvested from enucleated eyes and immediately analyzed by mass spectrometry. Spectral intensities were compared to spectra of known concentrations of each analog to calculate amounts of peptides reaching the vitreous. The eye drops administered to normal mouse eyes contained 5 μg of the test compound. Bioavailability was studied at three time points: 1, 4, 6 hr using four animals/time point (n=8 eyes). The vitreous was rapidly dissected from each group after the drops were given and immediately analyzed by MALDI TOF.

[2] = Peptide bioavailability in primate eyes, vitreous humor by mass spectrometry; format: in vivo, primate (Vervets); conditions: 100 μg topical
From the text: From the studies using the DR mouse model, two active, structurally diverse peptides 81-5 and 81-13 were selected to test their availability in the primate eye when given topically. There are substantial differences between the eyes of rodents, primates, and humans. The most obvious is size of the aqueous and vitreous fluid compartments. Fluid flow forward from the ciliary body in primates/humans is countercurrent to drug movement to the back of the eye and may influence drug concentrations in the vitreous. In this study, it was examined whether the selected compounds had access to the retina when given topically to primate eyes as they do in rodents. Peptide doses used were scaled up by 8-20 fold as an estimate to account for differences in eye volume between rodents and primates.
Adult males and females were equally distributed into 3 treatment groups (Table 3) and randomized by weight criteria. Animals were fasted overnight then sedated with ketamine (8 mg/kg, I.M) and xylazine (1.6 mg/kg, I.M) prior to all procedures. Two monkeys received a topical dose of 40 μg (40 μl) of 81-5 OU (both eyes) and underwent vitreocentesis at ˜1 hr (Group 1) after dosing. […]
Samples were analyzed by mass spectrometry and concentrations calculated using a standard curve that plotted intensity vs known concentration. […]

[3] = tested on: transcription factors; assay: Procarta multiplex transcription factor DNA binding activity; format: cell-based; conditions: 50 nM peptides, 48 hr, human RPE cells
Experimental: Activation of transcription factors by P78, spx or 81-5 was measured in human RPE cells. The Affymetrix Procarta Multiplex Transcription factor panel (Affymetrix, Inc. Santa Clara, Calif.) was used to obtain quantitative measurement of DNA binding activity of 44 transcription factors. Cells were seeded at 1×10^5 cells/ml in 6 well plates. Cells were treated with 50 nM peptides in 2% FBS medium for 48 hr, peptides were supplied twice after 24 hr. Cells were harvested using Buffer A working reagent (250 μl well)(1 ml Buffer A: 10 μl DTT, 10 μl protease inhibitor, 10 μl phosphatase inhibitor I, 10 μl phosphatase inhibitor II) and centrifuged at 14,000×g for 3 min at 4° C. Supernatant containing cytoplasmic proteins was collected and protein concentration estimated using the BioRad DC protein assay. To the nuclear pellets, 30 μl/well buffer B (1 ml Buffer B: 10 μl DTT, 10 μl protease inhibitor, 10 μl phosphatase inhibitor I) was added and the samples incubated for 2 hours at 200 rpm. Supernatant containing nuclear proteins was collected by centrifugation at 14,000×g for 5 min at 4° C. and protein concentration measured using Bio-Rad DC protein assay. […] The beads were washed again, resuspended with reading buffer, and incubated for 5 min at room temperature. DNA binding activity of the transcription factors was measured using the Bio-Plex 200 system (bio-Rad) and the xMAP technology.

| Molecule | bioavailability profile in rodents [1] | peptide concentration in the vitreous, 1 versus 2 hr [2] | regulation of transcription factors [3] |
| --- | --- | --- | --- |
| SALSLGAAERTESIIHR [Peptide 81-13, SALSLGAAERTESIIHR] | comparable bioavailability profiles with 81-5 | not significantly different between the 1 and 2 hr treatment | – |
| Pigment epithelium derived factor (protein) QNVPSSSEGSPVPDSTGEPVEEEDPFFKVPVNKLAAAVSNFGYDLYRLRSSASPTGNVLLSPLSVATALSALSLGAEHRTESVIHRALYYDLITNPDIHSTYKELLASVTAPEKNLKSASRIVFERKLRVKSSFVAPLEKSYGTRPRILTGNPRVDLQEINNWVQAQMKGKIARSTREMPSALSILLLGVAYFKGQWVTKFDSRKTTLQDFHLDEDRTVRVPMMSDPKAILRYGLDSDLNCKIAQLPLTGSMSIIFFLPLTVTQNLTMIEESLTSEFIHDIDRELKTIQAVLTVPKLKLSFEGELTKSLQDMKLQSLFESPDFSKITGKPVKLTQVEHRAAFEWNEEGAGSSPSPGLQPVRLTFPLDYHLNQPFLFVLRDTDTGALLFIGRILDPSST | – | – | regulates transcription factors |
